Measurements reported in patent US20180057565A1, “STABILIZED POLYPEPTIDE INSULIN RECEPTOR MODULATORS” (President and Fellows of Harvard College, priority 2012, published 2018).
Bridge positions count the residues as written; N and C are the ends. Square brackets hold non-standard residues; d marks the D form. Peptide text beside a SMILES is read from it. R8 = C=CCCCCCC[C@@](C)(N)C(=O)O; S5 = C=CCCC[C@](C)(N)C(=O)O

Tests used:
[1] = target: T1, IGF-1R (Homo sapiens, UniProt P08069); assay: IGF-1R phosphorylation Western blot after immunoprecipitation, HepG2 cells with IGF1; type: cell-based; conditions: in the presence of IGF1
T1 construct: host or cells: HepG2
Protocol: FIG. 11 depicts SIRB-B5 antagonism on IGF-1R. HepG2 cells were treated with SIRB-B5 in the presence of IGF1. IGF-1R was immunoprecipitated to be distinguished from IR on a Phospho-IR/IGF-1R Western blot.

[2] = target: T2, IRβ Tyr1150/1151 (Homo sapiens, UniProt P06213); assay: Immunoblotting of IR auto-phosphorylation in CHO-IR cells; type: cell-based; conditions: 10 μM peptides in the presence of 50 nM insulin
T2 construct: expressed in transfected cells; host or cells: CHO-IR (CHO cells stably expressing IR, from the Morris White lab)
Protocol: To perform this type of direct assay, a CHO-IR cell line that stably expresses IR (provided by Morris White lab) was treated with SIRB peptides to detect auto-phosphorylation of IRβ Tyr1150/1151 (Cell signaling) by western blot.
CHO-IR cells were seeded in 24-well plates and grown in Ham's F-12, 10% FBS medium to >80% confluent (in ˜48 hours). The cells are starved in Ham's F-12 medium without FBS for two hours prior to experiment.
For agonistic studies, cells were incubated in fresh Ham's F-12 without FBS (negative control and baseline for normalization) or the same medium with 50 nM insulin (positive control and 100% activity for normalization). Experimental wells were incubated in the same medium containing various concentrations of peptide (typically 1 uM, 10 uM, and 100 uM). All cells were incubated at 37° C. for 15 min or 30 min.
For antagonistic studies, the experiment could be done with or without pre-treatment with peptides. In the case without, cells were incubated in fresh Ham's F-12 without FBS (negative control and baseline for normalization) or the same medium with 50 nM insulin (positive control and 100% activity for normalization).
Experimental wells were incubated in the same medium containing various concentrations of peptide (typically 1 uM, 10 uM, and 100 uM) AND 50 nM insulin. All cells were incubated at 37 C. for 15 min. […]

[3] = system: phosphor-Akt S473; assay: Dose-response ELISA of phospho-Akt S473 in CHO-IR cell lysates; type: cell-based; conditions: 50 nM insulin
Protocol: FIG. 6 depicts the dose-response of antagonist SIRB-B5. CHO-IR cells were treated with 50 nM insulin and increasing concentrations of SIRB-B5. ELISA assays of phosphor-IR Y1150/1151 and phosphor-Akt S473 were performed with cell lysates.
For further verification of biological activity, the SIRB peptide library was screened again using IR auto-phosphorylation as an indicator. […] A possible explanation for the differential plateau values is that phosphorylation of Akt1 is controlled by many other pathways as well and thus difficult to abolish completely.

[4] = target: T3, L1-CR-L2 (Homo sapiens, UniProt P06213); assay: Affinity pull-down of IR construct by biotinylated peptide on streptavidin beads; conditions: 1% BSA in binding buffer, Western blot of His5 tag
T3 construct: made in house; host or cells: HEK293 (stably transfected; protein used from expression medium)
Source text: (§1) FIGS. 8A-8C depict the affinity pull-down of IR by SIRB-B5. 1% BSA added to binding buffer. FIG. 8A depicts the pull-down assay: Biotinylated SIRB-B5 could be immobilized on streptavidincoated beads and pull down IR from expression medium. Precipitated protein could be visualized by Western blot of His5 tag. FIG. 8B depicts L1-CR-L2 pulled down by SIRB-B5. FIG. 8C depicts mIR-Fn1-Ex10 pulled down by SIRB-B5 and competition by insulin.

[5] = system: mIR-Fn1-Ex10; assay: as above; conditions: 1% BSA in binding buffer, competition by insulin
Source text: as §1

[6] = system: phosphorylation of Akt1 at Ser473; assay: Phospho-Akt1 (Ser473) sandwich ELISA in HepG2 cells, antagonism and agonism screening; type: cell-based, human
Protocol: We note that although S371 has a high affinity to IR, it can barely induce downstream effects such as lipogenesis in rat adipocytes, which may reconcile with the result of no increase in downstream Akt phosphorylation. The effect of the peptides on insulin signaling was determined using a sandwich ELISA assay kit (Cell Signaling) designed to measure phosphorylation of Akt Ser473, a downstream target in the insulin signaling pathway. For each compound, cells were treated both in the presence and absence of insulin to reveal either antagonism or agonism, respectively, of insulin signaling.
Preparation: insulin stock solution at 50 μM (0.3 mg/ml or 30 mg/100 ml). To make stock: dissolved 10 mg in 1 ml 0.01 N HCl, heat at 37° C. to dissolve, then added to 32 ml, PBS, sterile filtered and stored at −20 C. Working stock would stay in good quality for 1 month at 4° C. […]
For the phospho-Akt1 ELISA assay, clarified lysate was first quantified using the standard BCA method, and all samples were adjusted to have the same total protein concentration. […]
The following day, wells were drained and washed four times with 1× Wash Buffer. […] Chemiluminescence was read under RLU mode in the […] SpectraMax Plate Reader at […] within 1-10 minutes of addition of substrate.

[7] = system: rat adipocytes; conditions: cited from earlier work
[8] = target: IR (Homo sapiens, UniProt P06213); conditions: read-out: affinity to the IR (kD); cited from earlier work

T1 sequence (P08069 31-736 limits assumed): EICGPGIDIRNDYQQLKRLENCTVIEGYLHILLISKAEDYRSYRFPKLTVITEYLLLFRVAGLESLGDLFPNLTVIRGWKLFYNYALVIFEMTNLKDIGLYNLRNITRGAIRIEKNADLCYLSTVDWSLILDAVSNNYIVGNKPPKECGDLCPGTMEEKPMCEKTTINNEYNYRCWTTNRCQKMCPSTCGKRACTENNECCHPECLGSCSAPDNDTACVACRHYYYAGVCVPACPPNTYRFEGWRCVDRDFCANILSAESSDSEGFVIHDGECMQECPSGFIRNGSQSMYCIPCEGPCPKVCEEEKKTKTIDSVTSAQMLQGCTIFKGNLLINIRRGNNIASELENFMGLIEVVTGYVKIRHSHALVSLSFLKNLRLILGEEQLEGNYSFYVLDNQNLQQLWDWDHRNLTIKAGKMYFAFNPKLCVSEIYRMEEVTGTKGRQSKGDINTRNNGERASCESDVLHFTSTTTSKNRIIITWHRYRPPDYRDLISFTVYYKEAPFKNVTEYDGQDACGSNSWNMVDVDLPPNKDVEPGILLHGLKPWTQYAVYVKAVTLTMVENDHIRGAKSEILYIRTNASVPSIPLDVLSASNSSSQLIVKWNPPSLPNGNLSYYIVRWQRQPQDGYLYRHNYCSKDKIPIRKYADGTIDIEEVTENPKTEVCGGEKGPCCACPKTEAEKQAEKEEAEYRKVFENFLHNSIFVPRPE
T1 sequence (P08069 741-1367 partner limits assumed): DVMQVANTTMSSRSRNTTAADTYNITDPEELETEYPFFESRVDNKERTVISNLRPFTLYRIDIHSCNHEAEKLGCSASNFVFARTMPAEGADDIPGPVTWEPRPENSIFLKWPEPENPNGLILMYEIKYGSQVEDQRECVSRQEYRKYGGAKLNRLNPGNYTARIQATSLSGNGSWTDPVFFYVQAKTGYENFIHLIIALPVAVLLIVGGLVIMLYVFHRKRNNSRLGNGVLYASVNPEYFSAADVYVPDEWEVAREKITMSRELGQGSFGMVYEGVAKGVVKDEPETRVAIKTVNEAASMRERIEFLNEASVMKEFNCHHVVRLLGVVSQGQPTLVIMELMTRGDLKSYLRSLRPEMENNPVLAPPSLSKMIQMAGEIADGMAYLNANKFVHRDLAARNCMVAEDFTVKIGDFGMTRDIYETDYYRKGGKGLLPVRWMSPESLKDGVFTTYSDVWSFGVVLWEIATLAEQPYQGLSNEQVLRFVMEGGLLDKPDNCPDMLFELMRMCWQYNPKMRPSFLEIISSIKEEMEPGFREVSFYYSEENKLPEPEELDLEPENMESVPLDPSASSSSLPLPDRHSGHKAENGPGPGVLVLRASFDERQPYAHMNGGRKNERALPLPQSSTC

Molecule | antagonism on IGF-1R [1] | effect on insulin-induced auto-phosphorylation of IR (Phospho-IR western blot) [2] | IC50 ([3]; CHO-IR cells, read-out: IC50, inhibition of insulin-induced phosphorylation of Akt) [nM] | Akt phosphorylation, % of control ([3]; maximal dose of 100 μM peptide) [%] | pull-down of L1-CR-L2 [4] | pull-down of mIR-Fn1-Ex10 [5] | reduction of the insulin-induced Akt-S473 phosphorylation signal ([6]; 10 μM peptide in the presence of 50 nM insulin) [%] | agonistic effect on Akt phosphorylation, peptide alone ([6]; absence of insulin) | induction of lipogenesis [7] | Kd [8] [nM]
CC(C)C[C@H](NC(=O)[C@H](CCC(N)=O)NC(=O)[C@H](CCCNC(=N)N)NC(=O)[C@]1(C)CCCC=CCCCCCC[C@@](C)(NC(=O)[C@H](CC(=O)O)NC(=O)[C@H](CC(C)C)NC(=O)[C@H](CO)NC(=O)CN)C(=O)N[C@@H](CO)C(=O)N[C@@H](Cc2ccccc2)C(=O)N[C@@H](Cc2ccc(O)cc2)C(=O)N[C@@H](CC(=O)O)C(=O)N[C@@H](Cc2c[nH]c3ccccc23)C(=O)N[C@@H](Cc2ccccc2)C(=O)N1)C(=O)NCC(N)=O [SIRB-B5] (H-GSLD[R8]SFYDWF[S5]RQLG-NH2; staple 5-12; C-terminus assumed) | antagonism | significant reduction | 1800 | 16 | pulled down | pulled down | – | – | – | –
S371: previously reported insulin-mimetic site 1 peptide of 16 residues from phage display; lead for stapling (GSLDESFYDWFERQLG) | – | – | – | – | – | – | 20 | no trace of any increase in phosphorylation | barely induce | 40
